Assay [1] concerns the target T1, BRD4-1 (binding domain 1 of BRD4) (Homo sapiens, UniProt O60885).
T1 construct: purchased Reaction Biology Corp., Malvern, Pa; (contract assay)
Put plainly: BRD4 binding domain 1 inhibition (Reaction Biology Corp.). As to conditions: 10-point curve; read-out: Target IC50 BRD4-1. How it is done:
(§1) The BTK, PI3K, and/or bromodomain inhibitory activity of a compound of the invention can be determined by methods known to the skilled artisan, or by procuring relevant analysis by a commercial vendor offering such services. […] In vivo, PI3K inhibition can be determined from target tissue biopsies by standard tissue processing in which cells are disrupted and Western Blot analysis is performed to determine the presence or absence of pAKT (substrate of PI3K) relative to a control sample. PI3K inhibition assays and BTK inhibition assays are known in the art and can be procured commercially through vendors such as Reaction Biology (Malvern, Pa.). The activity of a compound of the invention as an inhibitor of a bromodomain-containing protein, such as a BET protein, including BRD2, BRD3, BRD4, and/or BRDT, or an isoform or mutant thereof, may be determined in vitro, in vivo, or in a cell line. In vitro assays include assays that determine inhibition of bromodomain-containing proteins. Alternatively, inhibitor binding may be determined by running a competition experiment where a provided compound is incubated with a bromodomain-containing protein, such as a BET protein bound to known ligands, labeled or unlabeled. In vitro bromodomain inhibition assays can be performed using Alpha Screen Technology (Perkin Elmer Life and Analytical Sciences, Shelton, Conn.). In vivo bromodomain inhibition can be determined indirectly by evaluating the amount of a protein whose gene transcription is influenced or controlled by the bromodomain protein, for example, MYCN protein transcription is controlled by BRD4 (J. E. Delmore et al., Cell 2011, 146, 904-917; A. Puissant, Cancer Discov. 2013, 3, 308-323).
(§2) Compounds of the invention were analyzed for their ability to inhibit target proteins in vitro. PI3K alpha, gamma, and delta inhibition activity was determined by Thermo Fisher Scientific-Biosciences Life Sciences Solutions, Madison, Wis. The bromodomain protein inhibition (binding domain 1 and 2 of BRD4) was determined at Reaction Biology Corp., Malvern, Pa. BTK inhibition was performed by Reaction Biology Corp., Malvern, Pa.
(§3) Additional information regarding the testing procedures is available at each company's website on the internet. The IC50 data was calculated from a 10-point curve by the vendor and is compiled in ranges in the Table 6 below.

The next assay deals with T2, BTK (C481S) (Homo sapiens, UniProt Q06187, C481S).
T2 construct: purchased Reaction Biology Corp., Malvern, Pa; (contract assay)
T2 sequence (Q06187 whole entry C481S): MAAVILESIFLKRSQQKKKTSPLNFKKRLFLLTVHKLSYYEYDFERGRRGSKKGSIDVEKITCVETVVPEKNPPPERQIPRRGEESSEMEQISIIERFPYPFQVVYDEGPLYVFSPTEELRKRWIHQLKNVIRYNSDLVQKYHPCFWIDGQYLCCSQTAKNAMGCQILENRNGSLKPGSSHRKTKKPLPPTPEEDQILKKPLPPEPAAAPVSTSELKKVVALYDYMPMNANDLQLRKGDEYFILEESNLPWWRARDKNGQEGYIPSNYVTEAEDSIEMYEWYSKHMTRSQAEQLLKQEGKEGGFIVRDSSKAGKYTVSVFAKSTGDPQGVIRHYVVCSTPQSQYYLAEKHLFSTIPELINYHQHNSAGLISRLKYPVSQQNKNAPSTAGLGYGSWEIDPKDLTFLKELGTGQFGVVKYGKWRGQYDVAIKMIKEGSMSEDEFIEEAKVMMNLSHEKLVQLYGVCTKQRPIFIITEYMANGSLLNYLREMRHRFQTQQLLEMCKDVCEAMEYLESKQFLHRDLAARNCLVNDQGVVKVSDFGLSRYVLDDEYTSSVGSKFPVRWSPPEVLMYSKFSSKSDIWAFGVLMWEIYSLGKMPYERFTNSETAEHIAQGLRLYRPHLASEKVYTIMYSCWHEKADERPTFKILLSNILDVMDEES
Put plainly: BTK cysteine mutant C481S inhibition (Reaction Biology Corp.). The class given is biochemical. As to conditions: for IC50: 10-point curve, read-out: Target IC50 BTK (C481S); for Ratio C481S/WT: ratio of the BTK IC50 values, C481S over wild-type. How it is done: as §2, §3

Another assay concerns the target T3, PI3K α (Homo sapiens, UniProt P42336).
T3 construct: purchased Thermo Fisher Scientific-Biosciences Life Sciences Solutions, Madison, Wis; (contract assay)
The assay can be described thus: PI3K alpha inhibition (Thermo Fisher Scientific). The class given is biochemical. As to conditions: 10-point curve; read-out: Target IC50 PI3K α. How it is done: as §1, §2, §3

In assay [2] the target is T4, BRD4-2 (binding domain 2 of BRD4) (Homo sapiens, UniProt O60885).
T4 construct: purchased Reaction Biology Corp., Malvern, Pa; (contract assay)
The assay can be described thus: BRD4 binding domain 2 inhibition (Reaction Biology Corp.). As to conditions: 10-point curve; read-out: Target IC50 BRD4-2. How it is done:
as §1, §2, §3

In a further assay the target is T5, PI3K δ (Homo sapiens, UniProt O00329).
T5 construct: purchased Thermo Fisher Scientific-Biosciences Life Sciences Solutions, Madison, Wis; (contract assay)
T5 sequence (O00329 whole entry): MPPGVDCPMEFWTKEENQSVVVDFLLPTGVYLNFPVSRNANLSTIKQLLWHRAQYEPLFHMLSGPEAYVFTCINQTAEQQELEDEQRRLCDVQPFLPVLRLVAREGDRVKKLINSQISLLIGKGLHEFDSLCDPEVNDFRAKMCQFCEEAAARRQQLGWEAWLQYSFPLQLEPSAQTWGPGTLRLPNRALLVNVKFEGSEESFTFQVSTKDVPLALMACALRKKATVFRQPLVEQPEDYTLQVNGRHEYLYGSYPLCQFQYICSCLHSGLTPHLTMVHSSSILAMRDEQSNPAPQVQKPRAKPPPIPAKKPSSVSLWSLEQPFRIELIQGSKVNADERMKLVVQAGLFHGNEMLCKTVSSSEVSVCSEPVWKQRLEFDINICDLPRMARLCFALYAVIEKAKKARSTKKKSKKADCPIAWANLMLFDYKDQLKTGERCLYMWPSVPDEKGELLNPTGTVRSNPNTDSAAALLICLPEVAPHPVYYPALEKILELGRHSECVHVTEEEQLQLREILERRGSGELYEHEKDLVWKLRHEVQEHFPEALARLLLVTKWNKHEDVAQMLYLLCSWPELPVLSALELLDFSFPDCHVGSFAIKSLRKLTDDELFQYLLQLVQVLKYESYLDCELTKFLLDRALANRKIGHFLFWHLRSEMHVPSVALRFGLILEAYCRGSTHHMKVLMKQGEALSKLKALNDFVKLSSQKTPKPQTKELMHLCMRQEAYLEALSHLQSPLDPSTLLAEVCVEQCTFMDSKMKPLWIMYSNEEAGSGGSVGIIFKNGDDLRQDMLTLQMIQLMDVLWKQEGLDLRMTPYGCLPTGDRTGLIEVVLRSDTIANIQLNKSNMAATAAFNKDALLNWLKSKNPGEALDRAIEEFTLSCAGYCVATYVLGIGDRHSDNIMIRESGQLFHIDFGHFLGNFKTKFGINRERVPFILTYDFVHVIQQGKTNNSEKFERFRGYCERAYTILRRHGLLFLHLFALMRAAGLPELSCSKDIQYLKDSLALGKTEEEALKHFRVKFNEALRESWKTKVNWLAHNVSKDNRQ
T5 sequence (P27986 whole entry partner): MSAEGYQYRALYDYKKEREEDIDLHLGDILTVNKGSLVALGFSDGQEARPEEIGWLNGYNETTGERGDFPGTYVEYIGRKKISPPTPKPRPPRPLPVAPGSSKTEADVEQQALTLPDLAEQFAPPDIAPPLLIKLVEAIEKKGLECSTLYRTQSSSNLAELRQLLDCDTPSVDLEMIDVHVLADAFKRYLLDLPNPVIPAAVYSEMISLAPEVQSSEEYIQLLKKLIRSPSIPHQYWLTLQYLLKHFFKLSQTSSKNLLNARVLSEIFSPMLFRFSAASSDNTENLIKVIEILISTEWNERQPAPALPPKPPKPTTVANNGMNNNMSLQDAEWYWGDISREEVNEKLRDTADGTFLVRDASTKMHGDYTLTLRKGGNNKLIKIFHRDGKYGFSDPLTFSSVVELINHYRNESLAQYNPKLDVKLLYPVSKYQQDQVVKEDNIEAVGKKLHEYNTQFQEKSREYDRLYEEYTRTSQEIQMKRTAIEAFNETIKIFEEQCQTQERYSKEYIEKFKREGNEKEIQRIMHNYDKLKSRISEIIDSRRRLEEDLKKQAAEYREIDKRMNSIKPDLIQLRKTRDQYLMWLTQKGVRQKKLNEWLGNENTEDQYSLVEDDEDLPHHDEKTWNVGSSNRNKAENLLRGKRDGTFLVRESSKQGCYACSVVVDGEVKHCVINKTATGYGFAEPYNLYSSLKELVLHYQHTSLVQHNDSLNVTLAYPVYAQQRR
The assay can be described thus: PI3K delta inhibition (Thermo Fisher Scientific). Type of assay: biochemical. As to conditions: 10-point curve; read-out: Target IC50 PI3K δ. How it is done:
as §1, §2, §3

For another assay, the target named is T6, BTK (WT) (Homo sapiens, UniProt Q06187).
T6 construct: purchased Reaction Biology Corp., Malvern, Pa; (contract assay)
T6 sequence (Q06187 whole entry): as the sequence (Q06187 whole entry C481S) above, with S481C counted along it
Put plainly: native BTK inhibition (Reaction Biology Corp.). Type of assay: biochemical. As to conditions: 10-point curve; read-out: Target IC50 BTK (WT). How it is done:
as §2, §3

The target of the next assay is T7, PI3K γ (Homo sapiens, UniProt P48736).
T7 construct: purchased Thermo Fisher Scientific-Biosciences Life Sciences Solutions, Madison, Wis; (contract assay)
T7 sequence (P48736 whole entry): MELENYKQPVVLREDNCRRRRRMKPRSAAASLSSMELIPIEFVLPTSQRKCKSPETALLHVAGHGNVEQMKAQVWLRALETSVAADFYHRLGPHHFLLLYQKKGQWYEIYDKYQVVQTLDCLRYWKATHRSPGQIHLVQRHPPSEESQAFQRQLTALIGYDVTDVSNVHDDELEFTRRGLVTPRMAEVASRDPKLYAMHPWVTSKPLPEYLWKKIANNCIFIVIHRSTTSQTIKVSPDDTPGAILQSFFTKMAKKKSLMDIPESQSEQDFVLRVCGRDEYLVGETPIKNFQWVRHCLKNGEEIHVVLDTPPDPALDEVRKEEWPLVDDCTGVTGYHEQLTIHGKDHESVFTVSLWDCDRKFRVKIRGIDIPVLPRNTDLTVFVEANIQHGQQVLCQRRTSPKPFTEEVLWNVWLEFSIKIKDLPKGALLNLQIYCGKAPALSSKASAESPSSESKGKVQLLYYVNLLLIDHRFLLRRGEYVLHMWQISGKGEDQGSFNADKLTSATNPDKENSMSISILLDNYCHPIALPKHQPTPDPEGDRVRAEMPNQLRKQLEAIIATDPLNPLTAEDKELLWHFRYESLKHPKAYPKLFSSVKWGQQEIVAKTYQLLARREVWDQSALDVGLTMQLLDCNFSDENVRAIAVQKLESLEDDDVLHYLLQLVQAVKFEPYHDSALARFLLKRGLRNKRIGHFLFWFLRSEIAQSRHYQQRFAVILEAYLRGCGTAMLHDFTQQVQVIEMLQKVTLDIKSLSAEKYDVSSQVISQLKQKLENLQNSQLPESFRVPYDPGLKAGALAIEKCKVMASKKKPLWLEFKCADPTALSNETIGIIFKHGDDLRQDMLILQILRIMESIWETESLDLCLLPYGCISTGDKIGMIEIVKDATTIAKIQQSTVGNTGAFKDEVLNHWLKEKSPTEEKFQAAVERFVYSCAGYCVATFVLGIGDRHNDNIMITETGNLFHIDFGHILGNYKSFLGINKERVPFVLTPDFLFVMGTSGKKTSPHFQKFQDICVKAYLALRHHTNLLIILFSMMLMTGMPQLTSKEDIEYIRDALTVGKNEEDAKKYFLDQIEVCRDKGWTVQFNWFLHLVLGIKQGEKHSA
The assay can be described thus: PI3K gamma inhibition (Thermo Fisher Scientific). The class given is biochemical. As to conditions: 10-point curve; read-out: Target IC50 PI3K γ. How it is done:
as §1, §2, §3

The subject of a further assay is Mino cells. The assay can be described thus: Percentage cells in apoptosis, Mino. Type of assay: cell-based, human. As to conditions: 24-hour. An excerpt:
(§4) Additionally apoptosis data was obtained in both JeKo and Mino cells for compound 7.

The subject of another assay is JeKo-1 cells. Put plainly: Percentage cells in apoptosis, JeKo-1. Type of assay: cell-based, human.
Text: as §4

The structures appear in SMILES notation. Where only a bound is given, the exact number is not on record here.

T3 sequence (P42336 whole entry): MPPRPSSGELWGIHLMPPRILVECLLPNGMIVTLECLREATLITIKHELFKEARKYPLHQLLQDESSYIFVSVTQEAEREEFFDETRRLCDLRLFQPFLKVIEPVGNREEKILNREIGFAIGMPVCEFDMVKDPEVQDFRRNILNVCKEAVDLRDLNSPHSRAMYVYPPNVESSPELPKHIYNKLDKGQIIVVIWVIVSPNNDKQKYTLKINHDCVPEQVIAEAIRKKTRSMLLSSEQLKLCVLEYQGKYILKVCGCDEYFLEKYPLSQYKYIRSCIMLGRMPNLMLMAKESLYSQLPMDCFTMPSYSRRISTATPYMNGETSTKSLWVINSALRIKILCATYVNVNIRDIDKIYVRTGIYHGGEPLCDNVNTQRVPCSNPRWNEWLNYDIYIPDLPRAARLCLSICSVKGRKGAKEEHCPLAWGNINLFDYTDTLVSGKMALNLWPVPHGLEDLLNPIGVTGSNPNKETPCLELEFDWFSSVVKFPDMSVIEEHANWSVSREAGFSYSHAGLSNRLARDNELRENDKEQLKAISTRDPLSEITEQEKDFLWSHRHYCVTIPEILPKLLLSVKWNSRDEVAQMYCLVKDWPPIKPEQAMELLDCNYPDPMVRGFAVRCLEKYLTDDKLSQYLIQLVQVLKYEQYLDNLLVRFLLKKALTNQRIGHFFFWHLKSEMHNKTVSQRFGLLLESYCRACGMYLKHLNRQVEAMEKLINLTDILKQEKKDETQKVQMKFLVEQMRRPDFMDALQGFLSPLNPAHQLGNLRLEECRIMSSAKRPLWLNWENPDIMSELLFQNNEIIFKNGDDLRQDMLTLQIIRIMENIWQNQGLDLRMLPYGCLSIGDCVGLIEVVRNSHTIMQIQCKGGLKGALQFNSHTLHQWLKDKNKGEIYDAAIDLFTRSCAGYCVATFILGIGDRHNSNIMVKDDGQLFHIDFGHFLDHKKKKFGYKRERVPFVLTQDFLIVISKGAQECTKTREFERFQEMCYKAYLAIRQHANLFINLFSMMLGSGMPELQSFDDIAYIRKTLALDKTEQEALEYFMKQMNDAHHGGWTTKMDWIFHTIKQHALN
T3 sequence (P27986 whole entry partner): as the sequence (P27986 whole entry partner) above

One may read the IC50 as the concentration at which inhibition is half-maximal. `C=CC(=O)N1CCOc2ccc(-c3csc4c(=O)cc(N5CCNCC5)oc34)cc21` [Compound 5, 1-{7-[7-Oxo-5-(1-piperazinyl)-4-oxa-1-thia-3-indenyl]-4-oxa-1-aza-2,3-dihydro-1H-naphth-1-yl}-2-propen-1-one]: the IC50 in assay [1] is under 1 µM; at BTK (C481S) it was 10 to 30 µM; on PI3K α, 10 to 30 µM; in [2], 1 to 10 µM; at PI3K δ, 1 to 10 µM; on BTK (WT), under 1 µM. Besides, the IC50 on PI3K γ is over 50 µM. Besides, on BTK (C481S), the “Ratio C481S/WT” value is listed as 52.0.
As for `C=CS(=O)(=O)N1CCOc2ccc(-c3csc4c(=O)cc(N5CCOCC5)oc34)cc21` [Compound 21, 5-Morpholino-3-[4-(vinylsulfonyl)-1-oxa-4-aza-3,4-dihydro-2H-naphth-6-yl]-4-oxa-1-thia-7-indenone], the IC50 (in assay [1]; at BTK (C481S); on PI3K α; in [2]; at PI3K δ; on BTK (WT)) was under 1 µM each time. At PI3K γ, the IC50 was under 1 µM. For the same molecule, the “Ratio C481S/WT” value at BTK (C481S) came to 1402.
As for `C=CC(=O)N1CCOc2ccc(-c3csc4c(=O)cc(N5CCN(C(=O)OC(C)(C)C)CC5)oc34)cc21` [Compound 4, tert-butyl 4-[3-(4-acryloyl-1-oxa-4-aza-3,4-dihydro-2H-naphth-6-yl)-7-oxo-4-oxa-1-thia-5-indenyl]-1-piperazinecarboxylate], the IC50 in assay [1] was under 1 µM; on BTK (C481S) it was 10 to 30 µM; on PI3K α, 10 to 30 µM; in assay [2], 1 to 10 µM; at PI3K δ it was 1 to 10 µM; at BTK (WT) it was under 1 µM. Moreover, the IC50 at PI3K γ fell in the range of 10 to 30 µM. Also, on BTK (C481S), the “Ratio C481S/WT” value came to 212.
With `C=CC(=O)Nc1cccc(-c2csc3c(=S)cc(N4CCOCC4)oc23)c1` [Compound 2, 1-[m-(5-Morpholino-7-thioxo-4-oxa-1-thia-3-indenyl)phenylamino]-2-propen-1-one], the IC50 is 10 to 30 µM in [1]; 10 to 30 µM on BTK (C481S); under 1 µM on PI3K α; 1 to 10 µM in assay [2]; under 1 µM on PI3K δ; 1 to 10 µM at BTK (WT). The IC50 at PI3K γ was under 1 µM. On BTK (C481S), the “Ratio C481S/WT” value is on record as 8.1.
As to `C=CC(=O)N1CCOc2ccc(-c3csc4c(=O)cc(N5CCN(C)CC5)oc34)cc21` [Compound 6, 1-(7[5-(4-Methyl-1-piperazinyl)-7-oxo-4-oxa-1-thia-3-indenyl]-4-oxa-1-aza-2,3-dihydro-1H-naphth-1-yl]-2-propen-1-one], the IC50 in assay [1] is 1 to 10 µM; on BTK (C481S), 1 to 10 µM; at PI3K α, 30 to 50 µM; in [2], 10 to 30 µM; on PI3K δ, 1 to 10 µM; on BTK (WT), under 1 µM. The IC50 on PI3K γ was over 50 µM. The “Ratio C481S/WT” value on BTK (C481S) amounted to 11.2.
Take `CN[C@@H]1C[C@H]2O[C@@](C)([C@@H]1OC)n1c3ccccc3c3c4c(c5c6ccccc6n2c5c31)C(=O)NC4` [Staurosporine]: the “Percentage cells in apoptosis” value with Mino cells (Early) is “++++ (between 30% and 50%)”; with Mino cells (Late), “++++ (between 30% and 50%)”; in the assay with Mino cells (Total), “+++++ (more than 50%)”; in the assay with JeKo-1 cells (JeKo-1, 24-hour, Early), “++ (between 5% and 10%)”; in the assay on JeKo-1 cells (JeKo-1, 24-hour, Late), “+ (less than 5%)”; in the assay on JeKo-1 cells (JeKo-1, 24-hour, Total) it was “+++ (between 10% and 30%)”. The “Percentage cells in apoptosis” value in the assay on JeKo-1 cells (JeKo-1, 48-hour, Early) was “+++ (between 10% and 30%)”; with JeKo-1 cells (JeKo-1, 48-hour, Late), “+++ (between 10% and 30%)”; in the assay with JeKo-1 cells (JeKo-1, 48-hour, Total) it was “++++ (between 30% and 50%)”.
For the molecule `C=CC(=O)Nc1cc(OC)cc(-c2csc3c(=O)cc(N4CCOCC4)oc23)c1` [Compound 8, 1-[5-Methoxy-3-(5-morpholino-7-oxo-4-oxa-1-thia-3-indenyl)phenylamino]-2-propen-1-one], the IC50 in assay [1] was under 1 µM; at BTK (C481S), over 50 µM; at PI3K α it was under 1 µM; in assay [2] it was 1 to 10 µM; on PI3K δ, under 1 µM; on BTK (WT), under 1 µM. Further, the IC50 at PI3K γ is under 1 µM. For the same molecule, on BTK (C481S), the “Ratio C481S/WT” value is listed as over 60.
As to `C=CC(=O)Nc1cccc(-c2csc3c(=O)cc(N4CCNCC4)oc23)c1.O=C(O)C(F)(F)F` [Compound 3, 1-{m-[7-Oxo-5-(1-piperazinyl)-4-oxa-1-thia-3-indenyl]phenylamino}-2-propen-1-one], the IC50 in assay [1] is under 1 µM; at BTK (C481S) it was 30 to 50 µM; at PI3K α it was over 50 µM; in assay [2], 1 to 10 µM; at PI3K δ, over 50 µM; on BTK (WT), 1 to 10 µM. The IC50 on PI3K γ is over 50 µM. The “Ratio C481S/WT” value on BTK (C481S) was found to be 24.5.
As for `CCCCC/C=C/C(=O)Nc1cccc(-c2csc3c(=O)cc(N4CCOCC4)oc23)c1` [Compound 10, (E)-1-[m-(5-Morpholino-7-oxo-4-oxa-1-thia-3-indenyl)phenylamino]-2-octen-1-one], the IC50 in assay [1] is 1 to 10 µM; on PI3K α, 1 to 10 µM; in assay [2] it was 10 to 30 µM; at PI3K δ, 1 to 10 µM; on PI3K γ, 10 to 30 µM.
Regarding `CC#CC(=O)Nc1cccc(-c2csc3c(=O)cc(N4CCOCC4)oc23)c1` [Compound 12, 1-[m-(5-Morpholino-7-oxo-4-oxa-1-thia-3-indenyl)phenylamino]-2-butyn-1-one], the IC50 in assay [1] is under 1 µM; at BTK (C481S), 10 to 30 µM; at PI3K α, under 1 µM; in [2], under 1 µM; at PI3K δ it was under 1 µM; on BTK (WT), 1 to 10 µM. Moreover, the IC50 at PI3K γ is under 1 µM. For the same molecule, the “Ratio C481S/WT” value at BTK (C481S) is given as 15.8.
In the case of `C=CS(=O)(=O)Nc1cccc(-c2csc3c(=O)cc(N4CCOCC4)oc23)c1` [II-18, 5-morpholino-3-[m-(vinylsulfonylamino)phenyl]-4-oxa-1-thia-7-indenone], the IC50 (in assay [1]; at BTK (C481S); at PI3K α; in [2]; on PI3K δ; at BTK (WT)) was under 1 µM in each case. At PI3K γ, the concentration for half-maximal inhibition (IC50) was under 1 µM. Also, at BTK (C481S), the “Ratio C481S/WT” value is over 20K.
As for `N#C/C(=C\C1CC1)C(=O)Nc1cccc(-c2csc3c(=O)cc(N4CCOCC4)oc23)c1` [Compound 11, (E)-3-Cyclopropyl-2-{[m-(5-morpholino-7-oxo-4-oxa-1-thia-3-indenyl)phenylamino]carbonyl}acrylonitrile], the IC50 is 1 to 10 µM in assay [1]; 10 to 30 µM at BTK (C481S); under 1 µM on PI3K α; under 1 µM in assay [2]; under 1 µM at PI3K δ; 10 to 30 µM on BTK (WT). Also, at PI3K γ, the concentration for half-maximal inhibition (IC50) lay within 1 to 10 µM. The “Ratio C481S/WT” value on BTK (C481S) amounted to 1.3.

These data come from patent US20210300939A1, “Single Molecule Compounds Providing Multi-Target Inhibition of BTK and Other Proteins and Methods of Use Thereof” (SignalRx Pharmaceuticals, Inc., priority 2018, published 2021).
